Experimental data reported in the NIST ThermoML archive (doi:10.1021/acs.jced.6b00396).

Assay: xn = mol fraction of the nth substance listed
Conditions: Gas, isochoric method

C=C(F)C(F)(F)F [2,3,3,3-tetrafluoro-1-propene] + CCC
Conditions | specific volume [m3/kg]
268.15 K, 333 kPa, x2 = 0.709 | 0.095
273.15 K, 340.4 kPa, x2 = 0.709 | 0.095
278.15 K, 347.7 kPa, x2 = 0.709 | 0.095
278.15 K, 366.9 kPa, x2 = 0.505 | 0.072
283.15 K, 354.8 kPa, x2 = 0.709 | 0.095
283.15 K, 374.9 kPa, x2 = 0.505 | 0.072
288.13 K, 614.2 kPa, x2 = 0.611 | 0.047
288.15 K, 382.8 kPa, x2 = 0.505 | 0.072
288.16 K, 362 kPa, x2 = 0.709 | 0.095
288.16 K, 449 kPa, x2 = 0.23 | 0.048
293.15 K, 369.3 kPa, x2 = 0.709 | 0.095
293.15 K, 390.7 kPa, x2 = 0.505 | 0.072
293.15 K, 459.2 kPa, x2 = 0.23 | 0.048
293.17 K, 628.3 kPa, x2 = 0.611 | 0.047
298.15 K, 376.6 kPa, x2 = 0.709 | 0.095
298.15 K, 398.5 kPa, x2 = 0.505 | 0.072
298.15 K, 470.2 kPa, x2 = 0.23 | 0.048
298.15 K, 642.2 kPa, x2 = 0.611 | 0.047
298.15 K, 807.3 kPa, x2 = 0.839 | 0.047
303.15 K, 383.9 kPa, x2 = 0.709 | 0.095
303.15 K, 406.7 kPa, x2 = 0.505 | 0.072
303.15 K, 479.7 kPa, x2 = 0.23 | 0.048
303.15 K, 656.1 kPa, x2 = 0.611 | 0.047
303.15 K, 825.7 kPa, x2 = 0.839 | 0.047
308.15 K, 391 kPa, x2 = 0.709 | 0.095
308.15 K, 414.4 kPa, x2 = 0.505 | 0.072
308.15 K, 489.4 kPa, x2 = 0.23 | 0.048
308.15 K, 669.8 kPa, x2 = 0.611 | 0.047
308.15 K, 844 kPa, x2 = 0.839 | 0.047
313.15 K, 398.2 kPa, x2 = 0.709 | 0.095
313.15 K, 422.1 kPa, x2 = 0.505 | 0.072
313.15 K, 499.1 kPa, x2 = 0.23 | 0.048
313.15 K, 683.5 kPa, x2 = 0.611 | 0.047
313.15 K, 862.2 kPa, x2 = 0.839 | 0.047
318.15 K, 405.3 kPa, x2 = 0.709 | 0.095
318.15 K, 429.8 kPa, x2 = 0.505 | 0.072
318.15 K, 508.7 kPa, x2 = 0.23 | 0.048
318.15 K, 697.1 kPa, x2 = 0.611 | 0.047
318.15 K, 880.3 kPa, x2 = 0.839 | 0.047
323.15 K, 412.4 kPa, x2 = 0.709 | 0.095
323.15 K, 437.5 kPa, x2 = 0.505 | 0.072
323.15 K, 518.3 kPa, x2 = 0.23 | 0.048
323.15 K, 710.9 kPa, x2 = 0.611 | 0.047
323.15 K, 898.3 kPa, x2 = 0.839 | 0.047
328.15 K, 419.5 kPa, x2 = 0.709 | 0.095
328.15 K, 445.3 kPa, x2 = 0.505 | 0.072
328.15 K, 527.8 kPa, x2 = 0.23 | 0.048
328.15 K, 724.4 kPa, x2 = 0.611 | 0.047
328.15 K, 916.2 kPa, x2 = 0.839 | 0.047
333.15 K, 426.6 kPa, x2 = 0.709 | 0.095
333.15 K, 452.9 kPa, x2 = 0.505 | 0.072
333.15 K, 537.3 kPa, x2 = 0.23 | 0.048
333.15 K, 737.9 kPa, x2 = 0.611 | 0.047
333.15 K, 934 kPa, x2 = 0.839 | 0.047
338.15 K, 433.8 kPa, x2 = 0.709 | 0.095
338.15 K, 460.5 kPa, x2 = 0.505 | 0.072
338.15 K, 546.7 kPa, x2 = 0.23 | 0.048
338.15 K, 751.3 kPa, x2 = 0.611 | 0.047
338.15 K, 951.8 kPa, x2 = 0.839 | 0.047
343.15 K, 440.8 kPa, x2 = 0.709 | 0.095
343.15 K, 468.1 kPa, x2 = 0.505 | 0.072
343.15 K, 556.2 kPa, x2 = 0.23 | 0.048
343.15 K, 764.6 kPa, x2 = 0.611 | 0.047
343.15 K, 969.5 kPa, x2 = 0.839 | 0.047
348.14 K, 778 kPa, x2 = 0.611 | 0.047
348.15 K, 447.9 kPa, x2 = 0.709 | 0.095
348.15 K, 475.6 kPa, x2 = 0.505 | 0.072
348.15 K, 565.8 kPa, x2 = 0.23 | 0.048
348.15 K, 987.1 kPa, x2 = 0.839 | 0.047
353.15 K, 454.9 kPa, x2 = 0.709 | 0.095
353.15 K, 483.2 kPa, x2 = 0.505 | 0.072
353.15 K, 575.1 kPa, x2 = 0.23 | 0.048
353.15 K, 791.3 kPa, x2 = 0.611 | 0.047
353.15 K, 1004.6 kPa, x2 = 0.839 | 0.047
358.15 K, 462 kPa, x2 = 0.709 | 0.095
358.15 K, 490.8 kPa, x2 = 0.505 | 0.072
358.15 K, 584.5 kPa, x2 = 0.23 | 0.048
358.15 K, 804.5 kPa, x2 = 0.611 | 0.047
358.15 K, 1022.2 kPa, x2 = 0.839 | 0.047
363.15 K, 469 kPa, x2 = 0.709 | 0.095
363.15 K, 498.3 kPa, x2 = 0.505 | 0.072
363.15 K, 593.8 kPa, x2 = 0.23 | 0.048
363.15 K, 817.7 kPa, x2 = 0.611 | 0.047
363.16 K, 1039.6 kPa, x2 = 0.839 | 0.047
